Where two headings read alike, the source gives them in different places. Blank lines part the entries; values can stand above or below the molecule they belong to.
Columns and labels:
[1] = test system: sRA and control littermate mice; test: Blood chemistry following tolvaptan infusion (iSTAT CHEM8+); type: in vivo; conditions: for Anion gap / BUN / Chloride / Glucose / Hematocrit / Ionized calcium / Potassium / Sodium / Total CO2 / Creatinine: tolvaptan 22 ng/h, 10 days sc; for Creatinine: lower detection limit 0.20 mg/dl
Protocol: Blood and urine analyses: Plasma was obtained by collecting whole blood by submandibular bleed into lithium heparin coated tubes, then centrifuged at 5,000×g for 5 minutes, and the supernatant transferred to a fresh tube and frozen at −80° C. until analysis. Urine was collected using Nalgene single-mouse metabolism cages as previously described (20). Copeptin was measured using an ELISA kit (USCN Life Sciences), according to the manufacturer's instructions. Blood chemistries and urine creatinine were determined using a handheld iSTAT clinical chemistry analyzer (Abbott), with CHEM8+ cartridges. Urine protein was determined using a bicinchoninic acid assay kit (Thermo Fisher/Pierce), according to the manufacturer's instructions.

sRA mice [2] = test: Blood pressure by tail-cuff during chronic subcutaneous infusion; type: in vivo; conditions: 22 ng/h sc by osmotic minipump, 10 days
Protocol: Here we first examined blood pressure in sRA mice using a Visitech Systems BP-2000 tail-cuff blood pressure monitoring system, as previously described (79). Briefly, animals were acclimated to warmed restraint boxes daily for 1 wk. Once acclimated, 30 measurements of systolic blood pressure were averaged from each animal daily for 2 wk to assess baseline blood pressure. Conivaptan (Vaprisol, YM 087, 22 ng/h sc, Baxter Healthcare) or tolvaptan (OPC-41061, 22 ng/h sc, Sigma Aldrich) was delivered to distinct subsets of mice by osmotic minipump (model 1004, Alzet). After osmotic minipump implantation, pressures were recorded daily for 10 days to assess drug effects.

sRA mice [3] = test: Radiotelemetric blood pressure, heart rate and physical activity during chronic subcutaneous infusion; type: in vivo; conditions: for radiotelemetric blood pressure: sRA mice, 22 ng/h sc infusion (conivaptan 18 days, one female; tolvaptan 10 days, n=4 female)
Protocol: Blood pressure (telemetry). Radiotelemetric blood pressures were recorded from the carotid artery essentially as previously reported (27). Briefly, a telemeter probe (DSI, model TA11PA-C10) was inserted into the common carotid artery under ketamine-xylazine anesthesia. After >2 days of recovery, blood pressure, heart rate, and spontaneous physical activity were recorded for 30 s every 5 min using the Dataquest program (DSI). After baseline recordings, mice were chronically delivered conivaptan and tolvaptan via osmotic minipump that was implanted through an interscapular incision into the subcutaneous space of the back under isoflurane anesthesia.

abdominal aorta [4] = conditions: for Maximum Response, contraction / EC50 / Maximum Response, relaxation: abdominal aorta; for EC50: read-out: EC50, contractile response; for Maximum Response, relaxation: after sub-maximal contraction with PGF2a
Protocol: (§1) Aortic Vascular Reactivity: Abdominal aortic rings were assessed for vascular reactivity as previously described (30). Briefly, mice were euthanized by overdose of pentobarbital (50 mg, i.p.), and the abdominal aorta was quickly removed and placed in Kreb's buffer containing (in mmol/L): 118.3 NaCl, 4.7 KCl, 1.2 MgSO4, 1.2 KH2PO4, 25 NaHCO3, 2.5 CaCl2 and 11 glucose. Vascular rings (4-5 mm in length) were suspended in oxygenated Kreb's buffer (95% O2/5% CO2) in organ baths at 37° C. and connected to a force transducer via steel hooks. Resting tension was adjusted to 0.5 grams over 45 minutes.
(§2) Statistics: Data were analyzed by ANOVA with repeated measures as appropriate. Post-hoc analyses were performed using Bonferroni multiple-comparisons procedures. EC50 and maximum response calculations were performed by fitting individual dose-response data sets to a four-parameter logistic function (Hillslope method); y=min+(max−min)/(1+(x/EC50)̂Hill slope). […] All analytical comparisons were performed using SigmaStat/SigmaPlot (Systat). All data are presented as mean±sem.

[5] = test system: 2°-branch mesenteric artery; test: tissue or blood; design: species or system mice; conditions: for EC50 / Maximum Response, contraction: mesenteric artery; for EC50: read-out: EC50, contractile response
Protocol: Mesenteric Artery Vascular Reactivity: Secondary branches of mesenteric artery were dissected and placed in chilled oxygenated (21% O2, 5% CO2, and 74% N2) Kreb's buffer. A segment (˜1 mm long) of artery was transferred to a vessel chamber (DMT), cannulated with glass micropipettes and secured with silk ligatures. The artery was slowly pressurized to 40 mmHg without flow. After 30 min equilibration, vessel viability was tested by constriction response to 100 mM KCl. Vascular responses to PE (10-9-10-5 mol/L), AVP (10-12-10-7 mol/L), and ET-1 (10-11-10-8 mol/L) were then assessed. The artery was then superfused with calcium-free Krebs buffer containing 10-5 mol/L sodium nitroprusside and 2 mmol/L EGTA to maximally dilate the vessel. Internal and external diameters were measured at 75 mm Hg. Wall thickness, media/lumen ratio and cross sectional area (CSA) were calculated as previously described by Neves, et al. (58).
Statistics: Data were analyzed by ANOVA with repeated measures as appropriate. Post-hoc analyses were performed using Bonferroni multiple-comparisons procedures. EC50 and maximum response calculations were performed by fitting individual dose-response data sets to a four-parameter logistic function (Hillslope method); y=min+(max−min)/(1+(x/EC50)̂Hill slope). All mRNA fold changes were calculated using the Livak method (51). All analytical comparisons were performed using SigmaStat/SigmaPlot (Systat). All data are presented as mean±sem.

abdominal aorta [6] = test: tissue or blood; conditions: Mus musculus
Protocol: as §1, §2

[7] = in blood; cited from earlier work
C57B1/6J mice = test: Vasopressin infusion during pregnancy, preeclampsia-like phenotypes; type: in vivo
Protocol: Animal Studies: Female C57B1/6J mice were obtained from Jackson Laboratories between 8-12 weeks of age. Osmotic minipumps infusing vasopressin (240 ng/hr) or saline vehicle were inserted into the subcutaneous space via incision between the scapulae. Following three days of recovery, females were mated with male C57B1/6J mice. Presence of a vaginal plug indicated gestational day 0.5. Blood pressure was tracked before mating and throughout gestation by tail-cuff plethysmography. On gestational day 18, females were sacrificed for necropsy. Pup weight was recorded. Dam kidney sections were generated and imaged by electron microscopy by the University of Iowa Department of Pathology. All studies were approved by the University of Iowa Animal Care and Use Committee (ACURF#1211239).

[8] = female sRA mouse, 22 ng/h sc, 18 days

Structure (SMILES): Cc1ccccc1C(=O)Nc1ccc(C(=O)N2CCC[C@@H](O)c3cc(Cl)ccc32)c(C)c1 [Tolvaptan, tolvaptan]
Anion gap ([1]; female control mice): 17.0 ± 1.5 mM
BUN ([1]; female control mice): 18.4 ± 0.9 mg/dL
Chloride ([1]; female control mice): 112.4 ± 0.5 mM
Glucose ([1]; female control mice): 190 ± 13 mg/dL
Hematocrit ([1]; female control mice): 45.4 ± 0.7 % RBC
Ionized calcium ([1]; female control mice): 1.19 ± 0.05 mM
Potassium ([1]; female control mice): 6.4 ± 0.1 mM
Sodium ([1]; female control mice): 146.2 ± 0.7 mM
Total CO2 ([1]; female control mice): 24.0 ± 1.1 mM
Creatinine ([1]; female control mice): 0.24 ± 0.02 mg/dL
Anion gap ([1]; female sRA mice): 18.5 ± 0.7 mM
BUN ([1]; female sRA mice): 24.5 ± 1.7 mg/dL
Chloride ([1]; female sRA mice): 105.2 ± 1.6 mM
Glucose ([1]; female sRA mice): 136 ± 15 mg/dL
Hematocrit ([1]; female sRA mice): 49.8 ± 1.1 % RBC
Ionized calcium ([1]; female sRA mice): 1.18 ± 0.03 mM
Potassium ([1]; female sRA mice): 5.3 ± 0.3 mM
Sodium ([1]; female sRA mice): 146.3 ± 0.7 mM
Total CO2 ([1]; female sRA mice): 28.8 ± 1.7 mM
Creatinine ([1]; female sRA mice): 0.33 ± 0.04 mg/dL
Anion gap ([1]; male control mice): 16.3 ± 0.5 mM
BUN ([1]; male control mice): 21.5 ± 0.9 mg/dL
Chloride ([1]; male control mice): 115.5 ± 0.3 mM
Glucose ([1]; male control mice): 182 ± 7 mg/dL
Hematocrit ([1]; male control mice): 43.8 ± 1.1 % RBC
Ionized calcium ([1]; male control mice): 1.18 ± 0.04 mM
Potassium ([1]; male control mice): 6.6 ± 0.5 mM
Sodium ([1]; male control mice): 148.3 ± 1.3 mM
Total CO2 ([1]; male control mice): 24.0 ± 0.8 mM
Creatinine ([1]; male control mice): 0.25 ± 0.03 mg/dL
Anion gap ([1]; male sRA mice): 21.0 ± 2.4 mM
BUN ([1]; male sRA mice): 27.3 ± 2.1 mg/dL
Chloride ([1]; male sRA mice): 107.0 ± 2.7 mM
Glucose ([1]; male sRA mice): 181 ± 28 mg/dL
Hematocrit ([1]; male sRA mice): 52.0 ± 1.1 % RBC
Ionized calcium ([1]; male sRA mice): 1.18 ± 0.03 mM
Potassium ([1]; male sRA mice): 5.4 ± 0.1 mM
Sodium ([1]; male sRA mice): 147.5 ± 1.9 mM
Total CO2 ([1]; male sRA mice): 26.0 ± 3.4 mM
Creatinine ([1]; male sRA mice): 0.30 ± 0.04 mg/dL
effect on hyponatremia and hypocalcemia ([1]; sRA mice, chronic tolvaptan 22 ng/h sc, 10 days): corrected both of these imbalances
systolic blood pressure (tail-cuff), effect on hypertension (sRA mice [2]): nearly identical normalization of blood pressure
radiotelemetric blood pressure (sRA mice [3]): blood pressure reduction was confirmed

Structure (SMILES): CC[C@H](C)[C@H](NC(=O)[C@H](Cc1ccc(O)cc1)NC(=O)[C@@H](NC(=O)[C@H](CCCNC(=N)N)NC(=O)[C@@H](N)CC(=O)O)C(C)C)C(=O)N[C@@H](Cc1c[nH]cn1)C(=O)N1CCC[C@H]1C(=O)N[C@@H](Cc1ccccc1)C(=O)O [Angiotensin II, angiotensin II]
Maximum Response, contraction (abdominal aorta [4]; male control littermate mice): 0.32 ± 0.03 g
Maximum Response, contraction (abdominal aorta [4]; male sRA mice): 0.38 ± 0.03 g

EC50 (abdominal aorta [4]; male control littermate mice): 4600 nM
EC50 (abdominal aorta [4]; male sRA mice): 3600 nM
Structure (SMILES): CCCCC[C@H](O)/C=C/[C@@H]1[C@@H](C/C=C\CCCC(=O)O)[C@@H](O)C[C@H]1O [Prostaglandin F2α, prostaglandin F2a]
Maximum Response, contraction (abdominal aorta [4]; male control littermate mice): 1.59 ± 0.06 g
Maximum Response, contraction (abdominal aorta [4]; male sRA mice): 1.50 ± 0.10 g

EC50 ([5]; Mus musculus, male control littermate mice): 1460 nM
EC50 ([5]; Mus musculus, male sRA mice): 560 ± 80 nM
EC50 (abdominal aorta [6]; read-out: EC50, contractile response, abdominal aorta, male control littermate mice): 1900 nM
EC50 (abdominal aorta [6]; read-out: EC50, contractile response, abdominal aorta, male sRA mice): 2430 nM
Structure (SMILES): CNC[C@H](O)c1cccc(O)c1 [Phenylephrine, phenylephrine]
Maximum Response, contraction ([5]; male control littermate mice): 67.3 ± 3%
Maximum Response, contraction ([5]; male sRA mice): 64.5 ± 4.1%
Maximum Response, contraction (abdominal aorta [4]; male control littermate mice): 1.18 ± 0.05 g
Maximum Response, contraction (abdominal aorta [4]; male sRA mice): 1.02 ± 0.10 g

Structure (SMILES): NC(=O)CC[C@@H]1NC(=O)[C@H](Cc2ccccc2)NC(=O)[C@H](Cc2ccc(O)cc2)NC(=O)[C@@H](N)CSSC[C@@H](C(=O)N2CCC[C@H]2C(=O)N[C@@H](CCCN=C(N)N)C(=O)NCC(N)=O)NC(=O)[C@H](CC(N)=O)NC1=O [Arginine vasopressin, arginine vasopressin]
Maximum Response, contraction ([5]; male control littermate mice): 52.5 ± 3.2%
EC50 ([5]; male control littermate mice): 0.57 ± 0.15 nM
EC50 ([5]; male sRA mice): 15.9 ± 13.5 nM
Maximum Response, contraction (abdominal aorta [4]; male control littermate mice): 0.29 ± 0.03 g
Maximum Response, contraction (abdominal aorta [4]; male sRA mice): 0.12 ± 0.01 g
EC50 (abdominal aorta [4]; male control littermate mice): 2.19 ± 0.19 nM
EC50 (abdominal aorta [4]; male sRA mice): 3.72 ± 0.73 nM
biological half-life [7]: 5-20 minutes
renal pathology (electron microscopy) (C57B1/6J mice; dam kidney, gestational day 18, 240 ng/hr sc minipump): pathognomic glomerular endotheliosis
rate of pregnancy (fecundity) (C57B1/6J mice; female C57B1/6J mice, 240 ng/hr sc minipump): significantly reduced the rate of pregnancy
fetal growth (C57B1/6J mice; gestational day 18 fetuses, 240 ng/hr sc minipump): substantial fetal growth restriction
proteinuria (C57B1/6J mice; pregnant C57B1/6J mice, 240 ng/hr sc minipump): apparent proteinuria
blood pressure during pregnancy (C57B1/6J mice; pregnant C57B1/6J mice, 240 ng/hr sc minipump, tail-cuff): robust increase in blood pressure

Structure (SMILES): [Cl-].[K+] [potassium chloride]
contractile response to potassium chloride ([5]; mesenteric artery branches of sRA mice vs control, 100 mM KCl): significant reduction in contractile response
constrictor response to potassium chloride (abdominal aorta [4]; aortic rings from sRA mice vs control, 100 mmol/l KCl): normal constrictor responses

EC50 (abdominal aorta [6]; read-out: EC50, relaxation response, abdominal aorta, male control mice, after sub-maximal contraction with PGF2a): 130 ± 35 nM
EC50 (abdominal aorta [6]; read-out: EC50, relaxation response, abdominal aorta, male sRA mice, after sub-maximal contraction with PGF2a): 879 ± 298 nM
Structure (SMILES): CC(=O)OCC[N+](C)(C)C [Acetylcholine, acetylcholine]
Maximum Response, relaxation (abdominal aorta [4]; male control mice): 78.9 ± 3.3%
Maximum Response, relaxation (abdominal aorta [4]; male sRA mice): 70.4 ± 8.9%

Structure (SMILES): CC[C@H](C)[C@H](NC(=O)[C@H](CC(=O)O)NC(=O)[C@H](CC(C)C)NC(=O)[C@H](Cc1c[nH]cn1)NC(=O)[C@@H]1CSSC[C@H](N)C(=O)N[C@@H](CO)C(=O)N[C@H]2CSSC[C@H](NC(=O)[C@H](CCC(=O)O)NC(=O)[C@H](CCCCN)NC(=O)[C@H](CC(=O)O)NC(=O)[C@H](CCSC)NC(=O)[C@H](CC(C)C)NC(=O)[C@H](CO)NC(=O)[C@H](CO)NC2=O)C(=O)N[C@@H](C(C)C)C(=O)N[C@@H](Cc2ccc(O)cc2)C(=O)N[C@@H](Cc2ccccc2)C(=O)N1)C(=O)N[C@H](C(=O)N[C@@H](Cc1c[nH]c2ccccc12)C(=O)O)[C@@H](C)CC [Endothelin-1, endothelin-1]
Maximum Response, contraction ([5]; male control littermate mice): 67.8 ± 4.3%
EC50 ([5]; male control littermate mice): 1.68 ± 0.43 nM
Maximum Response, contraction ([5]; male sRA mice): 58 ± 4.6%
EC50 ([5]; male sRA mice): 0.45 ± 0.17 nM
Maximum Response, contraction (abdominal aorta [4]; male control littermate mice): 0.45 ± 0.04 g
Maximum Response, contraction (abdominal aorta [4]; male sRA mice): 0.55 ± 0.09 g
EC50 (abdominal aorta [4]; male control littermate mice): 3.4 ± 0.33 nM
EC50 (abdominal aorta [4]; male sRA mice): 5.19 ± 0.93 nM

Structure (SMILES): Cc1nc2c([nH]1)-c1ccccc1N(C(=O)c1ccc(NC(=O)c3ccccc3-c3ccccc3)cc1)CC2 [conivaptan]
systolic blood pressure (tail-cuff), effect on hypertension (sRA mice [2]): complete normalization of the hypertension
heart rate (telemetry) (sRA mice [3]; [8]): slight reduction in heart rate
spontaneous physical activity (sRA mice [3]; [8]): remained normal
radiotelemetric blood pressure (sRA mice [3]): gradual but substantial reduction in blood pressure

Reference: patent US20150377876A1, “DIAGNOSTIC TOOLS TO PREDICT ONSET OF PREECLAMPSIA” (UNIVERSITY OF IOWA RESEARCH FOUNDATION, priority 2013, published 2015)
